Drawing on ChEMBL document CHEMBL1149876, “The berkeleyamides, amides from the acid lake fungus Penicillum rubrum” (J Nat Prod, 2008), this text covers Activity and IC50 for four compounds.

The target of one experiment is Stromelysin-1 (Homo sapiens, UniProt P08254). Put plainly: Inhibition of MMP3.
The target of another experiment is T1, Caspase-1 (Homo sapiens) (UniProt P29466).
T1 sequence (whole entry): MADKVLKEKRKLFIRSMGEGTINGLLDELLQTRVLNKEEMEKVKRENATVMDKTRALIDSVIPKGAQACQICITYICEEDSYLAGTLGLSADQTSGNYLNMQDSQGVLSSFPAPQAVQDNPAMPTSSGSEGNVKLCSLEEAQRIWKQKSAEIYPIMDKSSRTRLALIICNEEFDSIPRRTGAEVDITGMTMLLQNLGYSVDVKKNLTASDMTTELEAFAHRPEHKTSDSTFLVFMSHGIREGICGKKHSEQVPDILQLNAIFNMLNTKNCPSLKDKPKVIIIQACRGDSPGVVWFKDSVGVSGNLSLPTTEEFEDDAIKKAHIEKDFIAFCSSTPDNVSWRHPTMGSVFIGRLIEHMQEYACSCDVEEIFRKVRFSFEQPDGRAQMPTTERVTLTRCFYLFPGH
Put plainly: (§1) Inhibition of caspase 1.

In a further experiment the target is T2, Caspase-1 (Homo sapiens, UniProt P29466).
T2 sequence (P29466 whole entry): T1 sequence (whole entry)
The experiment is described as §1.

The source made the active and inactive calls. The rule behind the calls is not given here.

Regarding `CC(=O)OC(c1ccccc1)c1cc(=O)c(C(=O)NC(=O)CC(C)C)cn1CCO` (stereo not drawn), the outcome at Stromelysin-1 and on Caspase-1 (Homo sapiens) was Active.

In the case of `CC(=O)OC(c1ccccc1)c1cc(=O)c(C(=O)NC(=O)CC(C)C)co1` (stereo not drawn), the outcome on Stromelysin-1 and on Caspase-1 (Homo sapiens) was Active.

Regarding `CC(C)C[C@H]1C[C@H]([C@@H](O)CC(=O)Cc2ccccc2)C(=O)N1` [BERKELEYAMIDE A], the IC50 against Stromelysin-1 and against Caspase-1 was 330 nM each time.

Turning to `CC(C)CC1(O)NC(=O)C2(OC(Cc3ccccc3)=CC2=O)C1O` (stereo not drawn) [BERKELEYAMIDE D], the IC50 against Stromelysin-1 and against Caspase-1 was 610 nM throughout.

One may read the IC50 as the midpoint of a concentration-inhibition curve. Higher therefore signals weaker potency in that assay.
